From article PMC9744210, “Discovery of the SHP2 allosteric inhibitor 2-((3R,4R)-4-amino-3-methyl-2-oxa-8-azaspiro[4.5]decan-8-yl)-5-(2,3-dichlorophenyl)-3-methylpyrrolo[2,1-f][1,2,4] triazin-4(3H)-one” (Journal of Enzyme Inhibition and Medicinal Chemistry, 2022)

target: T1, SHP2 (Homo sapiens, UniProt Q06124); assay: SHP2 phosphatase activity inhibition, DiFMUP prompt fluorescence assay; assay type: biochemical; details: 0.5 nM SHP2 activated with 0.125 µM bis-tyrosyl-phosphorylated peptide; substrate DiFMUP 200 μM; room temperature; read-out: Inhibitory activity IC50
T1 construct: 6xHis (N, cleaved yes); TEV cleavage site (N, cleaved yes); made in house; host or cells: E. coli BL21 (DE3)
T1 sequence (Q06124 1-525): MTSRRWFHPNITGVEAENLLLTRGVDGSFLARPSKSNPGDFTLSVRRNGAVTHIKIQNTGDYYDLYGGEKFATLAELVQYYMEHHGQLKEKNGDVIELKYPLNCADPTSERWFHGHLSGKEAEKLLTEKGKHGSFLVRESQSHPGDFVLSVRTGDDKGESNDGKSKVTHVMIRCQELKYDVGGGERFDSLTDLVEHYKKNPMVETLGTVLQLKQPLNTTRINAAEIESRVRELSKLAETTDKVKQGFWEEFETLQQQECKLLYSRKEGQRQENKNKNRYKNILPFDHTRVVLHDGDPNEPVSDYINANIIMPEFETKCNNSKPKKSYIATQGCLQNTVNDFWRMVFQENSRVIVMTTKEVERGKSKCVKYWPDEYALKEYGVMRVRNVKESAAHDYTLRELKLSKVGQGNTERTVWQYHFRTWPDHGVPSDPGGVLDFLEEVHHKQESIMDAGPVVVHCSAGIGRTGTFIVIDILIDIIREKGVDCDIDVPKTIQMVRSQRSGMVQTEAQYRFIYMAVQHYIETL
Method: The measurement of the catalytic activity of SHP2 is using the surrogate substrate 6,8-difluoro-4-methylumbelliferyl phosphate (DiFMUP) in a prompt fluorescence assay format.[14]^,[22]^,[23] In special, the phosphatase reaction was performed at room temperature in a 384-well black plate (Corning) with a total volume of 20 μL. The assay buffer contained 60 mM HEPES, pH7.2, 75 mM NaCl, 75 mM KCl, 1 mM EDTA, 5 mM DTT, and 0.05% Triton X-100.
After 60 min incubation at room temperature, the surrogate substrate DiFMUP (Thermo, Cat: D6567, 200 μM) was added to the catalytic reaction. After 30 min incubation at room temperature, the fluorescence signal was measured at the excitation and emission wavelengths of 340 nm and 450 nm respectively with a plate reader (Tecan Spark). The curves of the inhibitor dose–response were analysed using normalised IC50 regression curve fitting with control-based normalisation.

Compound	IC50
Cn1c(N2CCC(C)(CN)CC2)nn2ccc(-c3cccc(Cl)c3Cl)c2c1=O [PB17-036-01]	645 nM
C[C@H]1OCC2(CCN(c3nn4ccc(-c5ccncc5)c4c(=O)n3C)CC2)[C@H]1N [PB17-035-01]	168 nM
C[C@H]1OCC2(CCN(c3nn4ccc(-c5cccc(Cl)c5Cl)c4c(=O)n3C)CC2)[C@H]1N [PB17-026-01, 2-((3R,4R)-4-amino-3-methyl-2-oxa-8-azaspiro[4.5]decan-8-yl)-5–(2,3-dichlorophenyl)-3-methylpyrrolo[2,1-f][1,2,4]triazin-4(3H)-one]	38.9 nM
C[C@H]1OCC2(CCN(c3nn4cnc(-c5cccc(Cl)c5Cl)c4c(=O)n3C)CC2)[C@H]1N [PB17-021-01]	104 nM
